Consider 24 compounds from patent publication US10294212B2 (CURADEV PHARMA PRIVATE LTD., priority 2013, dated 2019).

For assay [1], the target named is Human indoleamine 2,3-dioxygenase1 (hIDO1) (Homo sapiens (Human), UniProt P14902). Description: In-vitro IDO1 enzyme assay (conversion of L-tryptophan to KYN). The assay is classed as biochemical. Conditions: read-out: IC50 (IDO1) Enz. Put shortly:
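Kynurenine formation quantified by HPLC absorbance at 360 nm or LC/MS/MS after TCA quench and 15 min at 65 °C. Reaction: 10 nM N-His hIDO1, 30 μM tryptophan, ascorbate/methylene blue/catalase, pH 6.5 phosphate buffer, 37 °C for 30 min. Inhibition relative to 1% DMSO vehicle, fitted to IC50.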

The next assay deals with IDO1 in HeLa cells (Homo sapiens (Human), UniProt P14902). Description: HeLa cell based IDO1 assay (IFNγ-induced, KYN in supernatant). Put shortly:
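Kynurenine in the supernatant, quantified by C-18 HPLC with 360 nm absorbance after TCA hydrolysis (65 °C, 15 min), was the read-out. Compounds (typically 10 μM to 1 nM) were added in HBSS containing 80 μM tryptophan to HeLa cells pre-induced overnight with 50 ng/mL IFNγ. IC50 came from nonlinear fits of % inhibition versus 1% DMSO vehicle.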

Assay [2] has as its target Human TDO (hTDO)-transfected CHO-K1 cells (Homo sapiens (Human), UniProt P48775). Description: CHO-K1 cell based TDO assay. The conditions noted are these: hTDO cellular assay. An outline of the steps: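 Kynurenine output was read by LC/MS/MS after TCA precipitation and 15 min at 65° C. Before that, CHO-K1 cells stably carrying human TDO2 were incubated 2 h with compounds (typically 31 μM to 10 nM) and 80 μM L-tryptophan in HBSS. Decrease versus DMSO vehicle gave percent inhibition, then IC50.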

Counter-ions that a name gives are not always drawn.

Sequence of Human indoleamine 2,3-dioxygenase1 (hIDO1) (P14902 whole entry): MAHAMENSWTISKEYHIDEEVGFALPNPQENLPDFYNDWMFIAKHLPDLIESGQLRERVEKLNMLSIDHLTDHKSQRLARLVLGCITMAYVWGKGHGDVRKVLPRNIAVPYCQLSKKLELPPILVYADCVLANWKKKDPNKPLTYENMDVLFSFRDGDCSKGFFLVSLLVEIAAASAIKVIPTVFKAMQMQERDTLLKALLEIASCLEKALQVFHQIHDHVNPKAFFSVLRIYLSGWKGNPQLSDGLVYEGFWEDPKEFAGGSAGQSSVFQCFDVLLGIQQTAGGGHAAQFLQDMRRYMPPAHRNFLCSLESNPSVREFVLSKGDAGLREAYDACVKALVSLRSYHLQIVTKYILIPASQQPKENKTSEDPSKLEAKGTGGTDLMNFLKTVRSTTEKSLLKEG
Sequence of IDO1 in HeLa cells (P14902 whole entry): as above
Sequence of Human TDO (hTDO)-transfected CHO-K1 cells (P48775 whole entry): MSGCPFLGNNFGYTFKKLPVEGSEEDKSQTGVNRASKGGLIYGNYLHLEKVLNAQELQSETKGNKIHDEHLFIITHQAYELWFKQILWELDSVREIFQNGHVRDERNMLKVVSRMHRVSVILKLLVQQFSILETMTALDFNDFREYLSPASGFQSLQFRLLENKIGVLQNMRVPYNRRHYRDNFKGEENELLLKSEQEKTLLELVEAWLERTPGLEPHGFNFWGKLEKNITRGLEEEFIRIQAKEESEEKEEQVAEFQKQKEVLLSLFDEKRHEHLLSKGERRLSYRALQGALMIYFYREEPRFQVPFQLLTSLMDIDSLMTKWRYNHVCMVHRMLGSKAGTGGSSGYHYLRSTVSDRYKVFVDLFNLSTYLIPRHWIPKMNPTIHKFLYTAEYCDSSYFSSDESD

Consider `Cc1cccc(Nc2c(N)oc3cc(C#N)ccc23)c1` [Compound 114, 2-Amino-3-(m-tolylamino)benzofuran-6-carbonitrile], for which the IC50 in assay [1] was 200 to 1000 nM; on IDO1 in HeLa cells it was < 200 nM; in assay [2], > 2000 nM.
Take `N#Cc1ccc2c(Nc3cccc(Br)c3)c(N)oc2c1` [Compound 115, 2-Amino-3-((3-bromophenyl)amino)benzofuran-6-carbonitrile]: the IC50 in assay [1] was < 200 nM; against IDO1 in HeLa cells, < 200 nM; in assay [2], < 500 nM.
Regarding `N#Cc1ccc2c(Nc3ccccc3Cl)c(N)oc2c1` [Compound 116, 2-Amino-3-((2-chlorophenyl)amino)benzofuran-6-carbonitrile], the IC50 in assay [1] was > 1000 nM; on IDO1 in HeLa cells it was 200 to 1000 nM; in assay [2], > 2000 nM.
Consider `Nc1sc2ccccc2c1Nc1ccc(F)c(Cl)c1` [Compound 117, N^3-(3-Chloro-4-fluorophenyl)benzo[b]thiophene-2,3-diamine], for which the IC50 in assay [1] was < 200 nM; against IDO1 in HeLa cells it was < 200 nM; in assay [2] it was < 500 nM.
With `Nc1sc2ccccc2c1Nc1cccc(C(F)(F)F)c1` [Compound 119, N^3-(3-(Trifluoromethyl)phenyl)benzo[b]thiophene-2,3-diamine], the IC50 in assay [1] was < 200 nM; against IDO1 in HeLa cells, < 200 nM; in assay [2], > 2000 nM.
As for `Nc1sc2ccccc2c1Nc1cccc(F)c1` [Compound 120, N^3-(3-Fluorophenyl)benzo[b]thiophene-2,3-diamine], the IC50 in assay [1] was < 200 nM; at IDO1 in HeLa cells, < 200 nM; in assay [2] it was < 500 nM.
As for `Nc1sc2ccc(Br)cc2c1Nc1ccc(F)c(Cl)c1` [Compound 123, 5-Bromo-N^3-(3-chloro-4-fluorophenyl)benzo[b]thiophene-2,3-diamine], the IC50 in assay [1] is < 200 nM; at IDO1 in HeLa cells, 200 to 1000 nM; in assay [2], > 2000 nM.
For `Nc1sc2ccccc2c1Nc1ccc(Cl)c(C(F)(F)F)c1` [Compound 124, N^3-(4-Chloro-3-(trifluoromethyl)phenyl)benzo[b]thiophene-2,3-diamine], the IC50 in assay [1] is < 200 nM; at IDO1 in HeLa cells it was < 200 nM; in assay [2] it was > 2000 nM.
For the compound `Nc1sc2ccccc2c1Nc1ccc(Br)c(C(F)(F)F)c1` [Compound 126, N^3-(4-Bromo-3-(trifluoromethyl)phenyl)benzo[b]thiophene-2,3-diamine], the figures for the IC50 (in assay [1]; at IDO1 in HeLa cells; in assay [2]) were 200 to 1000 nM, 200 to 1000 nM and > 2000 nM, respectively.
With `Nc1sc2ccc(Cl)cc2c1Nc1ccccc1` [Compound 130, 5-Chloro-N^3-phenylbenzo[b]thiophene-2,3-diamine], the IC50 was 200 to 1000 nM in assay [1], 200 to 1000 nM against IDO1 in HeLa cells and > 2000 nM in assay [2].
On to `Nc1sc2ccc(Cl)cc2c1Nc1ccc(F)cc1` [Compound 131, 5-Chloro-N^3-(4-fluorophenyl)benzo[b]thiophene-2,3-diamine], for which the IC50 in assay [1] lay in the range of 200 to 1000 nM; on IDO1 in HeLa cells, 200 to 1000 nM; in assay [2], 500 to 2000 nM.
With `Nc1sc2ccc(Cl)cc2c1Nc1ccc(F)c(C(F)(F)F)c1` [Compound 132, 5-Chloro-N^3-(4-fluoro-3-(trifluoromethyl)phenyl)benzo[b]thiophene-2,3-diamine], the IC50 in assay [1] was 200 to 1000 nM; against IDO1 in HeLa cells, 200 to 1000 nM; in assay [2], > 2000 nM.
For `Nc1sc2ccc(Cl)cc2c1Nc1cccc(C(F)(F)F)c1` [Compound 133, 5-Chloro-N^3-(3-(trifluoromethyl)phenyl)benzo[b]thiophene-2,3-diamine hydrochloride], the figures for the IC50 (in assay [1]; on IDO1 in HeLa cells; in assay [2]) were 200 to 1000 nM, 200 to 1000 nM and 500 to 2000 nM, respectively.
As to `C#Cc1cccc(Nc2c(N)sc3ccccc23)c1` [Compound 137, N^3-(3-Ethynylphenyl)-1-benzothiophene-2,3-diamine], the IC50 in assay [1] was 200 to 1000 nM; at IDO1 in HeLa cells, < 200 nM; in assay [2], > 2000 nM.
Consider `Cc1cccc(Nc2c(N)sc3ccccc23)c1C` [Compound 138, N^3-(2,3-Dimethylphenyl)-1-benzothiophene-2,3-diamine], for which the concentration for half-maximal inhibition (IC50) is > 1000 nM in assay [1], 200 to 1000 nM against IDO1 in HeLa cells and 500 to 2000 nM in assay [2].
For `O=C(Nc1oc2cnccc2c1Nc1ccc(F)c(Cl)c1)OCc1ccccc1` [Compound 139, Benzyl (3-((3-chloro-4-fluorophenyl)amino)furo[2,3-c]pyridin-2-yl)carbamate], in that order: > 1000 nM, > 1000 nM and 500 to 2000 nM.
On the same counts, the results for `Nc1oc2c(-c3ccc(F)cc3)nccc2c1Nc1ccc(F)c(Cl)c1` [Compound 147, N^3-(3-Chloro-4-fluorophenyl)-7-(4-fluorophenyl)furo[2,3-c]pyridine-2,3-diamine] are < 200 nM, < 200 nM and 500 to 2000 nM.
On the same counts, the results for `Cn1cc(-c2nccc3c(Nc4ccc(F)c(Cl)c4)c(N)oc23)cn1` [Compound 148, N^3-(3-Chloro-4-fluorophenyl)-7-(1-methyl-1H-pyrazol-4-yl)furo[2,3-c]pyridine-2,3-diamine] are < 200 nM, < 200 nM and 500 to 2000 nM.
Consider `N#Cc1ccc(-c2nccc3c(Nc4ccc(F)c(Cl)c4)c(N)oc23)cc1` [Compound 149, 4-(2-Amino-3-((3-chloro-4-fluorophenyl)amino)furo[2,3-c]pyridin-7-yl)benzonitrile], for which the IC50 in assay [1] was < 200 nM; against IDO1 in HeLa cells, < 200 nM; in assay [2], 500 to 2000 nM.
As to `NC(=O)c1ccc(-c2nccc3c(Nc4ccc(F)c(Cl)c4)c(N)oc23)cc1` [Compound 151, 4-(2-Amino-3-((3-chloro-4-fluorophenyl)amino)furo[2,3-c]pyridin-7-yl)benzamide], the figures for the IC50 (in assay [1]; against IDO1 in HeLa cells; in assay [2]) were < 200 nM, < 200 nM and 500 to 2000 nM, respectively.
On to `COC(=O)c1ccc(-c2nccc3c(Nc4ccc(F)c(Cl)c4)c(N)oc23)cc1` [Compound 152, Methyl 4-(2-amino-3-((3-chloro-4-fluorophenyl)amino)furo[2,3-c]pyridin-7-yl)benzoate], for which the half-inhibitory concentration (IC50) in assay [1] was < 200 nM; on IDO1 in HeLa cells it was < 200 nM; in assay [2], 500 to 2000 nM.
In the case of `Nc1oc2c(I)nccc2c1Nc1ccc(F)c(Cl)c1` [Compound 153, N^3-(3-Chloro-4-fluorophenyl)-7-iodofuro[2,3-c]pyridine-2,3-diamine], the concentration for half-maximal inhibition (IC50) in assay [1] is < 200 nM; against IDO1 in HeLa cells, < 200 nM; in assay [2] it was < 500 nM.
With `Nc1oc2c(-c3ccnc(N4CCOCC4)c3)nccc2c1Nc1ccc(F)c(Cl)c1` [Compound 154, N^3-(3-Chloro-4-fluorophenyl)-7-(2-morpholinopyridin-4-yl)furo[2,3-c]pyridine-2,3-diamine], the IC50 in assay [1] is < 200 nM; against IDO1 in HeLa cells it was < 200 nM; in assay [2], > 2000 nM.
For the compound `Cc1cc(-c2nccc3c(Nc4ccc(F)c(Cl)c4)c(N)oc23)ccn1` [Compound 158, N^3-(3-chloro-4-fluorophenyl)-7-(2-methylpyridin-4-yl)furo[2,3-c]pyridine-2,3-diamine], the values for the IC50 (in assay [1]; on IDO1 in HeLa cells; in assay [2]) were < 200 nM, < 200 nM and 500 to 2000 nM, respectively.
